{"source": "patent US20090203526A1", "about": "“METHOD OF CONTROLLING UNWANTED VEGETATION” (Arysta LifeScience North America, LLC, priority 2008, published 2009)", "type_in_all_cases": "in vivo", "conditions_in_all_cases": "Site No. 1 (control site; g active/ha): Pre-emergent Glyphosate 450, Ammonium sulphate 1.12 kg/ha", "key": {"crop": {"system": "crop", "description": "Site No. 1 was again a control site and sites No. 2-Sites No. 10 were treated with varying treatment schemes. […] In all sites, any pre-existing weeds that germinated and grew to cover the sites were removed with glyphosate to ensure a more accurate determination of the viability of each treatment scheme. For Site No. 2-Site No. 10, glyphosate was tank-mixed with PREPARE and applied to each site prior to the emergence of the desired crop.\nThe remaining sites were allowed the same amount of time for weed growth and were visually compared to crop planting site (Site No. 1). […] Further, the respective crop yield for each crop planting site was also recorded.\nAmmonium sulphate is a commercially available fertilizer blend used as an adjuvant to improve performance of glyphosate."}, "Foxtail Barley": {"system": "Foxtail Barley", "assay": "Example 7 field sites: visual % control of Foxtail Barley", "procedure": "(§1) Another study was conducted to test various application methods using flucarbazone-sodium (PREPARE) in a pre-emergent application followed by post-emergent application with propoxycarbazone (OLYMPUS®), pyroxsulam (Simplicity®), sulfosulfuron ([…]®), pinoxaden (AXIAL™ XL) and flucarbazone-sodium (EVEREST®) to control Bromus secalinus and Foxtail Barley.\n(§2) To better evaluate the ability of each treatment scheme in controlling unwanted vegetation in a planting site, a group of nearly identical crop planting sites (Site 1-Site 10) were subjected to different treatment schemes. Again, Site No. 1 was a control site. Sites No. 2-Sites No. 10 were treated with either a pre-emergent treatment or sequential pre-emergent and post-emergent treatment schemes. Treatment rates were based on the recommended lower rate provided on the product label (grams of active ingredient per hectare). […]\n(§3) Site No. 1 was not treated with a pre-emergent treatment or a post-emergent treatment, allowing Bromus secalinus and Foxtail Barley to emerge either with the crop or after crop emergence. […] Thus, percent control for Bromus secalinus and Foxtail Barley were evaluated as the weed-free area in the particular site in comparison to the completely weed covered Site No. 1. […]"}, "Bromus secalinus": {"system": "Bromus secalinus", "assay": "Example 7 field sites: visual % control of Cheat (Bromus secalinus)", "procedure": "as §1, §2, §3"}, "Wild Oat [1]": {"system": "Wild Oat", "assay": "Example 6 field sites: visual % control of wild oat", "procedure": "A study was conducted to test various application methods using flucarbazone-sodium (PREPARE) in a pre-emergent application followed by post-emergent application with clodinafop (DISCOVER® NG), pinoxaden (AXIAL™ XL) and flucarbazone-sodium (EVEREST®) for control of wild oat.\nTo better evaluate the ability of each treatment scheme in controlling unwanted vegetation in a planting site, a group of nearly identical crop planting sites (Site 1-Site 7) were subjected to different treatment schemes. Site No. 1 was to act as a control site and Site No. 2-Sites No. 7 were treated with a pre-emergent treatment or sequential pre-emergent and post-emergent treatment schemes. Treatment rates were based on the recommended rate provided on the product label (grams of active ingredient per hectare). Since the label provides a range, the rate applied is based on the lower recommended rate from the label range. […]\nSite No. 1 was not treated with a pre-emergent or a post-emergent application of a herbicidally active compound according to embodiments of the present invention, allowing wild oat to emerge either with the crop or after crop emergence. […] Thus, percent control for wild oat was evaluated as the weed-free area in the particular site in comparison to the completely weed covered Site No. 1. […]"}, "Wild Oat [2]": {"system": "Wild Oat", "assay": "Example 8 field sites: visual % control of Wild Oat", "procedure": "as §1, with “(PrePare)” for “(PREPARE)”, “(SIMPLICITY®),” for “(Simplicity®),”, “Wild Oat.” for “Bromus secalinus and Foxtail Barley.”\nas §2, with “schemes.” for “schemes. Again,”, “was again” for “was”, “site and sites” for “site. Sites”, “varying” for “either a pre-emergent treatment or sequential pre-emergent and post-emergent”, “Again, the treatment” for “Treatment”\nSite No. 1 was not treated with a pre-emergent application or post-emergent application of herbicidally active compounds, allowing Wild Oat to emerge either with the crop or after crop emergence. […] Thus, percent control for Wild Oat was evaluated as the weed-free area in the particular site in comparison to the completely weed covered Site No. 1. Further, the respective crop yield for each crop planting site was also recorded. […]"}}}
{"smiles": "O=C(O)CNCP(=O)(O)O", "note": "[Glyphosate, glyphosate]", "values": [{"measurement": "Crop Yield", "setting": "crop", "result": 20.1, "unit": "Bu./Acre"}, {"measurement": "% Control of Foxtail Barley at 86 days after application", "setting": "Foxtail Barley", "result": 0, "unit": "%"}, {"measurement": "% Control of Cheat (Bromus secalinus) at 86 days after application", "setting": "Bromus secalinus", "result": 5, "unit": "%"}, {"measurement": "% Control of Wild Oat at 89 days after application", "setting": "Wild Oat [1]", "result": 0, "unit": "%"}, {"measurement": "% Control of Wild Oat at 86 days after application", "setting": "Wild Oat [2]", "result": 27, "unit": "%"}]}
